Assay results as given in patent US6558923B2 (priority 1998, dated 2003).

Columns and labels:
Assay type in all cases: cell-based, HIV-1
[1] = tested on: NL4-3 reference virus; experiment: microbe, parasite or virus in culture; conditions: Human immunodeficiency virus 1, NL43, read-out: Geometric-mean IC90
[2] = tested on: recombinant virus carrying protease sequences from patient plasma
[3] = tested on: recombinant virus carrying gag-protease sequences from patient plasma

SMILES | IC90 [1] [µM] | Effect of increasing protease inhibitor concentrations on infectivity of recombinant particles [2] | Reduction in sensitivity [3] [fold] | Sensitivity [3] | Sensitivity correlated with genotype [3] | Change in IC90 [2] | IC90 of pre-therapy recombinant viruses compared with the other protease inhibitors [2] | Susceptibility of pre-therapy virus from patient B versus pre-therapy virus from patient A [2]
CC(C)CN(C[C@@H](O)[C@H](Cc1ccccc1)NC(=O)O[C@H]1CCOC1)S(=O)(=O)c1ccc(N)cc1 [Amprenavir, amprenavir] | 0.054 | – | – | – | – | – | – | –
CC(C)(C)NC(=O)[C@@H]1CN(Cc2cccnc2)CCN1C[C@@H](O)C[C@@H](Cc1ccccc1)C(=O)N[C@H]1c2ccccc2C[C@H]1O [Indinavir] | 0.016 | clear and gradual inhibition of single-cycle particle infectivity | 10 | further reduced | reduced sensitivity | – | – | –
Cc1c(O)cccc1C(=O)N[C@@H](CSc1ccccc1)[C@H](O)CN1C[C@H]2CCCC[C@H]2C[C@H]1C(=O)NC(C)(C)C [Nelfinavir, nelfinavir] | 0.0035 | – | – | – | reduced sensitivity | – | – | –
CC(C)c1nc(CN(C)C(=O)N[C@H](C(=O)N[C@@H](Cc2ccccc2)C[C@H](O)[C@H](Cc2ccccc2)NC(=O)OCc2cncs2)C(C)C)cs1 [Ritonavir] | 0.023 | – | – | – | reduced sensitivity | – | – | –
CC(C)(C)NC(=O)[C@@H]1C[C@@H]2CCCC[C@@H]2CN1C[C@@H](O)[C@H](Cc1ccccc1)NC(=O)[C@H](CC(N)=O)NC(=O)c1ccc2ccccc2n1 [Saquinavir] | 0.028 | clear and gradual inhibition of single-cycle particle infectivity | 4 | further reduced | resistance | prominent increase | always significantly lower | clearly less susceptible
